Laboratory results published in US6384070B2, “Indole derivatives useful as endothelin receptor antagonists” (Pfizer Inc., priority 1996, dated 2002).

Test system: not given
Assay: not given
Conditions: not given

| melting point | Structure (SMILES) |
| --- | --- |
| 145 to 150 °C | COc1cc(C)ccc1S(=O)(=O)NC(=O)C(c1ccc2c(c1)OCO2)c1cn(C)c2ccc(Br)cc12 (centres unmarked) [Example 79, 3-{1-(1,3-Benzodioxol-5-yl)-2-[(2-methoxy-4-methylphenyl)sulfonamido]-2-oxoethyl}-5-bromo-1-methyl-1H-indole] |
| 191 to 193 °C | Cn1cc(C(C(=O)O)c2ccc3c(c2)OCO3)c2cc(Br)ccc21 (centres unmarked) [Example 68, 2-(1,3-Benzodioxol-5-yl)-2-(5-bromo-1-methyl-1H-3-indolyl)acetic acid] |
| 145 to 150 °C (dec.) | COc1cc(C)ccc1S(=O)(=O)NC(=O)C(c1ccc2c(c1)OCO2)c1cn(C)c2cc(Br)ccc12 (centres unmarked) [Example 85, 3-{1-(1,3-benzodioxol-5-yl)-2-[(2-methoxy-4-methylphenyl)sulfonamido]-2-oxoethyl}-6-bromo-1-methyl-1H-indole] |
| 207 to 209 °C | Cc1ccc(S(=O)(=O)NC(=O)C(c2cc3c(cc2Cl)OCO3)c2cn(C)c3cc(CO)ccc23)cc1 (centres unmarked) [Example 99, 3-{1-(6-Chloro-1,3-benzodioxol-5-yl)-2-[(4-methylphenyl)sulfonamido]-2-oxoethyl}-6-(hydroxymethyl)-1-methyl-1H-indole] |
| 235 °C (dec.) | COc1cc(C)ccc1S(=O)(=O)NC(=O)C(c1cc(OC)c2c(c1)OCO2)c1cn(C)c2cc(Br)ccc12 (centres unmarked) [Example 92, 6-Bromo-3-{1-(7-methoxy-1,3-benzodioxol-5-yl)-2-[(2-methoxy-4-methylphenyl)sulfonamido]-2-oxoethyl}-1-methyl-1H-indole] |

Test system: neointimal formation
Assay: not given
Conditions: S. Douglas et al. Circ Res, 75, 1994; cited from earlier work

| Structure (SMILES) | reduction in neointimal formation relative to control animals |
| --- | --- |
| CCCOc1ccc2c(c1)[C@@H](c1ccc(OC)cc1OCC(=O)O)[C@H](C(=O)O)[C@H]2c1ccc2c(c1)OCO2 [SB-209670] | 50% |

Biological target: T1, cloned human ETA receptor (Homo sapiens, UniProt P25101)
T1 sequence (P25101 21-427): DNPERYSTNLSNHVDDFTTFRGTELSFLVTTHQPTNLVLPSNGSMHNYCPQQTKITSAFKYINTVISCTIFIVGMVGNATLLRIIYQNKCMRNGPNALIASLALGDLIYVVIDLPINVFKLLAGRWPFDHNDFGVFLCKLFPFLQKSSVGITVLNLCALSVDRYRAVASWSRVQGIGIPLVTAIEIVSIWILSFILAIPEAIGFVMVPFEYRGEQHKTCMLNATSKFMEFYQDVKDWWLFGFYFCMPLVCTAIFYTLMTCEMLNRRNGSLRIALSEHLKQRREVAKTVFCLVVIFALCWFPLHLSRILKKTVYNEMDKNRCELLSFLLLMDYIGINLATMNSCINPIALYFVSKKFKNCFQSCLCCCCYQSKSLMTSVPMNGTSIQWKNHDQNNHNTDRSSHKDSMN
Assay: Test A binding assay: competition with 125I-ET-1, binding to ETA receptors
Conditions: [125I]Tyr13 ET-1 displacement, 37° C., 2 hours
Description: Competition between test compounds and ^125I-ET-1 binding to human endothelin receptors is determined as follows.
25 ul of a 30 pM solution of [^125I]Tyr^13 ET-1 (specific activity 2,200 Ci/mM) is mixed with 25 μl samples of test compound (final concentrations in the range 0.1 nM-50.000 nM). 200 μl of a solution containing cloned human ETA receptor (0.75 pmoles receptor protein/ml). 50 mM Tris, 0.5 mM CaCl2, 0.1% human serum albumen. 0.1% bacitracin. 0.05% Tween 20, pH 7.4 is added. The solution is mixed at 37° C. for 2 hours. After the incubation, the unbound ligand is separated from receptor bound ligand by filtration with a Brandel cell harvester, followed by three washes of buffer. Filter papers are counted for radioactivity, and the IC50 (the concentration of test compound at which 50% of the radio-labelled compound is unbound) determined for the concentration range tested.

| IC50 | Structure (SMILES) |
| --- | --- |
| < 500 nM | COc1cc(C)ccc1S(=O)(=O)NC(=O)C(c1ccc2c(c1)OCO2)c1cn(C)c2cc(C(C)=O)ccc12 (centres unmarked) [Example 101, 6-Acetyl-3-{1-(1,3-benzodioxol-5-yl)-2-[(2-methoxy-4-methylphenyl)sulfonamido]-2-oxoethyl}-1-methyl-1H-indole] |
| < 500 nM | COCCn1cc(C(C(=O)NS(=O)(=O)c2ccc(C)cc2OC)c2ccc3c(c2)OCO3)c2ccc(C(N)=O)cc21 (centres unmarked) [Example 109, 3-{1-(1,3-benzodioxol-5-yl)-2-[(4-methyl-2-methoxyphenyl)sulfonamido]-2-oxoethyl}-1-(2-methoxyethyl)-1H-6-indolecarboxamide] |
| < 500 nM | COc1cc(C)ccc1S(=O)(=O)NC(=O)C(c1ccc2c(c1)OCO2)c1cn(C)c2cc(CO)ccc12 (centres unmarked) [Example 65, 3-{1-(1,3-Benzodioxol-5-yl)-2-[(2-methoxy-4-methylphenyl)sulfonamido]-2-oxoethyl}-6-(hydroxymethyl)-1-methyl-1H-indole] |
| < 500 nM | COc1cc(C)ccc1S(=O)(=O)NC(=O)C(c1ccc2c(c1)OCO2)c1cn(C)c2cc(C(=O)O)ccc12 (centres unmarked) [Example 17, 3-{1-(1,3-benzodioxol-5-yl)-2-[(2-methoxy-4-methylphenyl)sulfonamido]-2-oxoethyl}-1-methyl-1H-6-indolecarboxylic acid] |
| < 500 nM | COc1cc(C)ccc1S(=O)(=O)NC(=O)C(c1ccc2c(c1)OCO2)c1cn(C)c2cc(F)ccc12 (centres unmarked) [Example 83] |
